Measured values published in US11261177B2, “Benzoxazinone derivatives useful as herbicides” (REDAG CROP PROTECTION LTD, priority 2017, dated 2022).

Columns and labels:
Type in all cases: in vivo
[1] = tested on: Stellaria media—Chickweed; test: Post-emergence herbicidal assay, 96 cell trays, glasshouse; conditions: 168 h, second trial (Table 2), assessed 7 days after treatment, read-out: % control of plant growth; for pest or weed control at 200 g/ha: 0.2 kg/ha; for pest or weed control at 1000 g/ha: 1 kg/ha; for pest or weed control at 5000 g/ha: 5 kg/ha
Experimental: (§1) The compounds were screened at three concentrations (0.2, 1 and 5 kg/ha) against 2 weed species (Stellaria media—Chickweed and Lolium perenne). The seeds were sown in the cells of 96 cell trays (4-6 seeds per cell). For the pre-emergence assay, 75 μL of a suspension of the test compound, at the above doses, was added on top of the soil 1 day after sowing. For the post-emergence assay, the seedlings were sprayed with 200 μL of a suspension of the test compound two weeks after sowing. The formulation used is 25% acetone and 75% water/0.01% Tween 20. Each treatment was replicated three times. The plants were kept in a glasshouse (uncontrolled conditions) and assessed 7 days after treatment. A small number of compounds were tested in a first trial. A larger number of compounds were tested in a second trial. The assessment was based on the % control of plant growth in each cell.

Lolium perenne [2] = test: as above; conditions: 168 h, second trial (Table 2), Lollium, assessed 7 days after treatment, read-out: % control of plant growth; for pest or weed control at 200 g/ha: 0.2 kg/ha; for pest or weed control at 1000 g/ha: 1 kg/ha; for pest or weed control at 5000 g/ha: 5 kg/ha
Experimental: as §1

[3] = tested on: Stellaria media—Chickweed; test: Pre-emergence herbicidal assay, 96 cell trays, glasshouse; conditions: 168 h, second trial (Table 2), assessed 7 days after treatment, read-out: % control of plant growth; for pest or weed control at 200 g/ha: 0.2 kg/ha; for pest or weed control at 1000 g/ha: 1 kg/ha; for pest or weed control at 5000 g/ha: 5 kg/ha
Experimental: as §1

Lolium perenne [4] = test: as above; conditions: 168 h, second trial (Table 2), Lollium, assessed 7 days after treatment, read-out: % control of plant growth; for pest or weed control at 200 g/ha: 0.2 kg/ha; for pest or weed control at 1000 g/ha: 1 kg/ha; for pest or weed control at 5000 g/ha: 5 kg/ha
Experimental: as §1

SMILES | pest or weed control at 200 g/ha [1] [%] | pest or weed control at 1000 g/ha [1] [%] | pest or weed control at 5000 g/ha [1] [%] | pest or weed control at 200 g/ha (Lolium perenne [2]) [%] | pest or weed control at 1000 g/ha (Lolium perenne [2]) [%] | pest or weed control at 5000 g/ha (Lolium perenne [2]) [%] | pest or weed control at 200 g/ha [3] [%] | pest or weed control at 1000 g/ha [3] [%] | pest or weed control at 5000 g/ha [3] [%] | pest or weed control at 200 g/ha (Lolium perenne [4]) [%] | pest or weed control at 1000 g/ha (Lolium perenne [4]) [%] | pest or weed control at 5000 g/ha (Lolium perenne [4]) [%]
C#CCN1C(=O)C2(CC2)Oc2cc(F)c(N3C(=O)c4ccccc4C3=O)cc21 [Example 7] | 80 to 100 | 80 to 100 | 80 to 100 | < 20 | 20 to 80 | 20 to 80 | 80 to 100 | 80 to 100 | 80 to 100 | 20 to 80 | 80 to 100 | 80 to 100
C#CCN1C(=O)C2(CC2)Oc2cc(F)c(N3C(=O)c4ccc(O)cc4C3=O)cc21 [Example 9] | < 20 | < 20 | 20 to 80 | < 20 | < 20 | 20 to 80 | < 20 | < 20 | 20 to 80 | < 20 | < 20 | 20 to 80
C#CCN1C(=O)C2(CC2)Oc2cc(F)c(N3C(=O)c4ccc(OC)cc4C3=O)cc21 [Example 10] | 20 to 80 | 80 to 100 | 80 to 100 | < 20 | < 20 | < 20 | 20 to 80 | 80 to 100 | 80 to 100 | < 20 | < 20 | < 20
C#CCN1C(=O)C2(CC2)Oc2cc(F)c(N3C(=O)C4CC4C3=O)cc21 (stereo not drawn) [Example 13] | 80 to 100 | 80 to 100 | 80 to 100 | < 20 | < 20 | < 20 | 20 to 80 | 80 to 100 | 80 to 100 | < 20 | < 20 | 20 to 80
C#CCN1C(=O)C2(CC2)Oc2cc(F)c(N3C(=O)C=C(C(F)(F)F)C3=O)cc21 [Example 14] | < 20 | < 20 | < 20 | < 20 | < 20 | < 20 | < 20 | < 20 | < 20 | < 20 | < 20 | < 20
COC(=O)C(C)N1C(=O)C2(CC2)Oc2cc(F)c(N3C(=O)c4ccc(F)cc4C3=O)cc21 (stereo not drawn) [Example 16] | 80 to 100 | 80 to 100 | 80 to 100 | 20 to 80 | 20 to 80 | 80 to 100 | 80 to 100 | 80 to 100 | 80 to 100 | < 20 | 20 to 80 | 20 to 80
